Results taken from the supplement of paper PMC10307832.

Legend:
Experiment in all cases: relative viability (nuclei count vs DMSO), 5 days (fraction); higher = more cells survive
COR-L23 = test system: COR-L23
Method in brief: (§1)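 The day after seeding in 1536-well plates, lung cancer cell lines were treated by pin tool with a single drug, or with a fixed anchor-drug dose together with five library-drug doses (not always all listed) in √10 steps. After 5 days, a combined fix-and-stain solution (final 0.05% Triton X-100, 1% formaldehyde, 1 ug/ml Hoechst) was added. Nuclei counted on 4× images gave relative viability as treated counts over vehicle counts, reported as the median of duplicate plates.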

ChaGo-K-1 = test system: ChaGo-K-1
Method in brief: as §1

EMC-BAC-2 = test system: EMC-BAC-2
Method in brief: as §1

EPLC-272H = test system: EPLC-272H
Method in brief: as §1

H3255 = test system: H3255
Method in brief: as §1

HCC-44 = test system: HCC-44
Method in brief: as §1

HCC-827 = test system: HCC-827
Method in brief: as §1

LCLC-103H = test system: LCLC-103H
Method in brief: as §1

LU99A = test system: LU99A
Method in brief: as §1

NCI-H1395 = test system: NCI-H1395
Method in brief: as §1

NCI-H1651 = test system: NCI-H1651
Method in brief: as §1

NCI-H1793 = test system: NCI-H1793
Method in brief: as §1

NCI-H1944 = test system: NCI-H1944
Method in brief: as §1

NCI-H2023 = test system: NCI-H2023
Method in brief: as §1

NCI-H2085 = test system: NCI-H2085
Method in brief: as §1

NCI-H2087 = test system: NCI-H2087
Method in brief: as §1

NCI-H2405 = test system: NCI-H2405
Method in brief: as §1

NCI-H520 = test system: NCI-H520
Method in brief: as §1

NCI-H650 = test system: NCI-H650
Method in brief: as §1

NCI-H838 = test system: NCI-H838
Method in brief: as §1

SK-MES-1 = test system: SK-MES-1
Method in brief: as §1

Structure (SMILES): Nc1ccn([C@@H]2O[C@H](CO)[C@@H](O)[C@@H]2O)c(=O)n1 [Cytarabine] + Cc1cc(Nc2cc(N3CCN(C)CC3)nc(Sc3ccc(NC(=O)C4CC4)cc3)n2)n[nH]1 [Tozasertib] (partner 0.1 µM)
- relative viability (COR-L23; first compound 0.005 µM): 0.164
- relative viability (COR-L23; first compound 0.01581 µM): 0.141
- relative viability (COR-L23; first compound 0.05 µM): 0.159
- relative viability (COR-L23; first compound 0.1581 µM): 0.123
- relative viability (COR-L23; first compound 0.5 µM): 0.129
- relative viability (ChaGo-K-1; first compound 0.005 µM): 0.188
- relative viability (ChaGo-K-1; first compound 0.01581 µM): 0.207
- relative viability (ChaGo-K-1; first compound 0.05 µM): 0.208
- relative viability (ChaGo-K-1; first compound 0.1581 µM): 0.16
- relative viability (ChaGo-K-1; first compound 0.5 µM): 0.149
- relative viability (EMC-BAC-2; first compound 0.005 µM): 0.302
- relative viability (EMC-BAC-2; first compound 0.01581 µM): 0.288
- relative viability (EMC-BAC-2; first compound 0.05 µM): 0.242
- relative viability (EMC-BAC-2; first compound 0.1581 µM): 0.233
- relative viability (EMC-BAC-2; first compound 0.5 µM): 0.168
- relative viability (EPLC-272H; first compound 0.005 µM): 0.294
- relative viability (EPLC-272H; first compound 0.01581 µM): 0.199
- relative viability (EPLC-272H; first compound 0.05 µM): 0.289
- relative viability (EPLC-272H; first compound 0.1581 µM): 0.29
- relative viability (EPLC-272H; first compound 0.5 µM): 0.261
- relative viability (H3255; first compound 0.005 µM): 0.586
- relative viability (H3255; first compound 0.01581 µM): 0.644
- relative viability (H3255; first compound 0.05 µM): 0.786
- relative viability (H3255; first compound 0.1581 µM): 0.604
- relative viability (H3255; first compound 0.5 µM): 0.488
- relative viability (HCC-44; first compound 0.005 µM): 0.925
- relative viability (HCC-44; first compound 0.01581 µM): 0.928
- relative viability (HCC-44; first compound 0.05 µM): 0.418
- relative viability (HCC-44; first compound 0.1581 µM): 0.379
- relative viability (HCC-44; first compound 0.5 µM): 0.255
- relative viability (HCC-827; first compound 0.005 µM): 0.32
- relative viability (HCC-827; first compound 0.01581 µM): 0.282
- relative viability (HCC-827; first compound 0.05 µM): 0.286
- relative viability (HCC-827; first compound 0.1581 µM): 0.187
- relative viability (HCC-827; first compound 0.5 µM): 0.172
- relative viability (LCLC-103H; first compound 0.005 µM): 0.568
- relative viability (LCLC-103H; first compound 0.01581 µM): 0.487
- relative viability (LCLC-103H; first compound 0.05 µM): 0.413
- relative viability (LCLC-103H; first compound 0.1581 µM): 0.436
- relative viability (LCLC-103H; first compound 0.5 µM): 0.373
- relative viability (LU99A; first compound 0.005 µM): 0.263
- relative viability (LU99A; first compound 0.01581 µM): 0.273
- relative viability (LU99A; first compound 0.05 µM): 0.275
- relative viability (LU99A; first compound 0.1581 µM): 0.288
- relative viability (LU99A; first compound 0.5 µM): 0.281
- relative viability (NCI-H1395; first compound 0.005 µM): 0.703
- relative viability (NCI-H1395; first compound 0.01581 µM): 0.633
- relative viability (NCI-H1395; first compound 0.05 µM): 0.434
- relative viability (NCI-H1395; first compound 0.1581 µM): 0.447
- relative viability (NCI-H1395; first compound 0.5 µM): 0.388
- relative viability (NCI-H1651; first compound 0.005 µM): 0.688
- relative viability (NCI-H1651; first compound 0.01581 µM): 0.707
- relative viability (NCI-H1651; first compound 0.05 µM): 0.746
- relative viability (NCI-H1651; first compound 0.1581 µM): 0.577
- relative viability (NCI-H1651; first compound 0.5 µM): 0.206
- relative viability (NCI-H1793; first compound 0.005 µM): 0.346
- relative viability (NCI-H1793; first compound 0.01581 µM): 0.32
- relative viability (NCI-H1793; first compound 0.05 µM): 0.333
- relative viability (NCI-H1793; first compound 0.1581 µM): 0.291
- relative viability (NCI-H1793; first compound 0.5 µM): 0.332
- relative viability (NCI-H1944; first compound 0.005 µM): 0.211
- relative viability (NCI-H1944; first compound 0.01581 µM): 0.195
- relative viability (NCI-H1944; first compound 0.05 µM): 0.184
- relative viability (NCI-H1944; first compound 0.1581 µM): 0.149
- relative viability (NCI-H1944; first compound 0.5 µM): 0.114
- relative viability (NCI-H2023; first compound 0.005 µM): 0.238
- relative viability (NCI-H2023; first compound 0.01581 µM): 0.223
- relative viability (NCI-H2023; first compound 0.05 µM): 0.176
- relative viability (NCI-H2023; first compound 0.1581 µM): 0.101
- relative viability (NCI-H2023; first compound 0.5 µM): 0.0955
- relative viability (NCI-H2085; first compound 0.005 µM): 0.809
- relative viability (NCI-H2085; first compound 0.01581 µM): 0.806
- relative viability (NCI-H2085; first compound 0.05 µM): 0.844
- relative viability (NCI-H2085; first compound 0.1581 µM): 0.694
- relative viability (NCI-H2085; first compound 0.5 µM): 0.719
- relative viability (NCI-H2087; first compound 0.005 µM): 0.254
- relative viability (NCI-H2087; first compound 0.01581 µM): 0.25
- relative viability (NCI-H2087; first compound 0.05 µM): 0.234
- relative viability (NCI-H2087; first compound 0.1581 µM): 0.195
- relative viability (NCI-H2087; first compound 0.5 µM): 0.174
- relative viability (NCI-H2405; first compound 0.005 µM): 0.66
- relative viability (NCI-H2405; first compound 0.01581 µM): 0.712
- relative viability (NCI-H2405; first compound 0.05 µM): 0.56
- relative viability (NCI-H2405; first compound 0.1581 µM): 0.429
- relative viability (NCI-H2405; first compound 0.5 µM): 0.371
- relative viability (NCI-H520; first compound 0.005 µM): 0.416
- relative viability (NCI-H520; first compound 0.01581 µM): 0.463
- relative viability (NCI-H520; first compound 0.05 µM): 0.478
- relative viability (NCI-H520; first compound 0.1581 µM): 0.415
- relative viability (NCI-H520; first compound 0.5 µM): 0.494
- relative viability (NCI-H650; first compound 0.005 µM): 0.595
- relative viability (NCI-H650; first compound 0.01581 µM): 0.513
- relative viability (NCI-H650; first compound 0.05 µM): 0.34
- relative viability (NCI-H650; first compound 0.1581 µM): 0.249
- relative viability (NCI-H650; first compound 0.5 µM): 0.176
- relative viability (NCI-H838; first compound 0.005 µM): 0.29
- relative viability (NCI-H838; first compound 0.01581 µM): 0.319
- relative viability (NCI-H838; first compound 0.05 µM): 0.231
- relative viability (NCI-H838; first compound 0.1581 µM): 0.231
- relative viability (NCI-H838; first compound 0.5 µM): 0.161
- relative viability (SK-MES-1; first compound 0.005 µM): 0.583
- relative viability (SK-MES-1; first compound 0.01581 µM): 0.483
- relative viability (SK-MES-1; first compound 0.05 µM): 0.28
- relative viability (SK-MES-1; first compound 0.1581 µM): 0.179
- relative viability (SK-MES-1; first compound 0.5 µM): 0.159
